We go through seven compounds from PubChem BioAssay (NCI).

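48-hour exposure; five concentrations; linearly interpolated endpoints. Here, GI50 denotes the concentration required for 50% inhibition of growth. TGI is the concentration that stops growth completely.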

Among the test systems are M14 melanoma; NCI/ADR-RES ovarian; SK-MEL-2 melanoma; SNB-19 CNS; EKVX NSCLC; CAKI-1 renal; HCC-2998 colon; SR leukemia; SW-620 colon; COLO 205 colon.
Common to all, as to assay: inhibition of tumour cell growth, NCI panel, 48 h

Consider `COC(=O)[C@H](C[C@H](Cc1ccccc1)NC(=O)c1csc([C@@H](C[C@H](C(C)C)N(C)C(=O)[C@@H](NC(=O)[C@H]2CCCCN2C)C(C)C)OC(C)=O)n1)NC(=O)OCc1ccccc1`, for which the GI50 with M14 melanoma was less than 0.0009 µM; in the assay with NCI/ADR-RES ovarian, 0.0333 µM; in the assay on SK-MEL-2 melanoma, less than 0.0009 µM; in the assay on SNB-19 CNS, less than 0.0009 µM; with EKVX NSCLC, 0.00843 µM; with CAKI-1 renal, 0.00168 µM. Besides, the GI50 in the assay on HCC-2998 colon, with SR leukemia, with SW-620 colon and in the assay with COLO 205 colon was less than 0.0009 µM each time. In addition, the TGI in the assay with M14 melanoma is 0.365 µM; in the assay on NCI/ADR-RES ovarian it was 1.52 µM; with SK-MEL-2 melanoma, 4.53 µM; with SNB-19 CNS it was more than 9 µM; in the assay on EKVX NSCLC it was more than 9 µM; in the assay on CAKI-1 renal, more than 9 µM. For the same compound, the TGI in the assay with HCC-2998 colon is more than 5.64 µM; in the assay on SR leukemia, more than 4.29 µM; in the assay with SW-620 colon it was more than 9 µM.
`COc1ccc2c(c1)/C(=C\c1c(C)nc3sccn13)C(=O)N2`: the GI50 was less than 0.0495 µM in the assay on M14 melanoma; 0.162 µM in the assay on SK-MEL-2 melanoma; 0.525 µM with SNB-19 CNS; 2.12 µM with EKVX NSCLC; less than 0.0485 µM in the assay on CAKI-1 renal; 0.0392 µM in the assay with HCC-2998 colon. The GI50 is 0.0309 µM in the assay on SR leukemia, less than 0.0476 µM in the assay on SW-620 colon and less than 0.0506 µM with COLO 205 colon. Further, the TGI in the assay on M14 melanoma is more than 100 µM; in the assay on NCI/ADR-RES ovarian, more than 42.2 µM; in the assay with SK-MEL-2 melanoma, more than 83.7 µM; in the assay with SNB-19 CNS it was more than 100 µM; in the assay with EKVX NSCLC it was more than 100 µM; in the assay on CAKI-1 renal, more than 100 µM. Further, the results for the TGI with HCC-2998 colon, in the assay on SR leukemia and in the assay on SW-620 colon were 8.21 µM, 0.38 µM and more than 100 µM, respectively.
Turning to `CC[C@@H](C(=O)O)C1CC[C@H](C)C([C@@H](C)[C@H](O)[C@H](C)C(=O)[C@H](CC)C2O[C@]3(C=C[C@@H](O)[C@]4(CC[C@@](C)(C5CC[C@](O)(CC)[C@H](C)O5)O4)O3)[C@H](C)C[C@@H]2C)O1` (some centres not stated), the GI50 is 1.29 µM in the assay on M14 melanoma; 0.443 µM in the assay with NCI/ADR-RES ovarian; 0.981 µM in the assay with SK-MEL-2 melanoma; 0.323 µM in the assay on SNB-19 CNS; 0.523 µM in the assay on EKVX NSCLC; 0.19 µM in the assay with CAKI-1 renal. The GI50 in the assay on HCC-2998 colon was 0.13 µM; with SR leukemia, 0.0411 µM; in the assay on SW-620 colon, 1.33 µM; with COLO 205 colon, 0.224 µM. Besides, the TGI in the assay on M14 melanoma was 2.82 µM; in the assay on NCI/ADR-RES ovarian, 34.7 µM; in the assay with SK-MEL-2 melanoma, 7.53 µM; with SNB-19 CNS, 3.65 µM; with EKVX NSCLC, 22.5 µM; with CAKI-1 renal, 18.2 µM. In addition, the TGI in the assay on HCC-2998 colon was found to be 7.52 µM; in the assay on SR leukemia, 14 µM; with SW-620 colon, 8.93 µM; in the assay with COLO 205 colon, 5.2 µM.
Turning to `CCCCCCCCCCCCCCCCN1CC2CCCCC2C1` (configuration not stated), the GI50 is 2.93 µM in the assay with M14 melanoma; 4.56 µM in the assay with NCI/ADR-RES ovarian; 12.1 µM in the assay with SK-MEL-2 melanoma; 7 µM with SNB-19 CNS; 9.19 µM in the assay with EKVX NSCLC; 2.49 µM in the assay with CAKI-1 renal. The GI50 with HCC-2998 colon was 2.17 µM; with SR leukemia it was 2.07 µM; in the assay with SW-620 colon, 3.87 µM; in the assay with COLO 205 colon, 4.37 µM. Moreover, the TGI in the assay with M14 melanoma stood at 9.22 µM; in the assay on NCI/ADR-RES ovarian it was 16.8 µM; in the assay with SK-MEL-2 melanoma, 26.3 µM; in the assay on SNB-19 CNS it was 27.7 µM; in the assay on EKVX NSCLC, 21.8 µM; in the assay with CAKI-1 renal, 8.91 µM. For the same compound, the TGI with HCC-2998 colon is 5.44 µM; in the assay with SR leukemia it was 4.64 µM; in the assay on SW-620 colon, 15 µM; with COLO 205 colon it was 17.7 µM.
With `O=C(NCCCCCCNC(=O)n1cc(F)c(=O)[nH]c1=O)NCCCOCCOCCOCCOCCOCCOCCOCCOCCOCCOCCOCCOCCOCCOCCOCCOCCOCCOCCOCCOCCOCCCNC(=O)C(O)C(O)C(O)C(O)CO` (configuration not stated), the TGI in the assay on M14 melanoma, with NCI/ADR-RES ovarian, in the assay with SK-MEL-2 melanoma, with SNB-19 CNS, in the assay with EKVX NSCLC and with CAKI-1 renal was more than 100 µM throughout. In addition, the TGI in the assay with HCC-2998 colon, with SR leukemia, in the assay on SW-620 colon and in the assay on COLO 205 colon was more than 100 µM throughout.
As to `COc1ccc(/C(C#N)=C/c2ccccc2OC)cc1`, the GI50 in the assay with M14 melanoma was 4.8 µM; in the assay on NCI/ADR-RES ovarian it was 3.66 µM; in the assay on SK-MEL-2 melanoma, 4.68 µM; in the assay with SNB-19 CNS, 30.3 µM; in the assay on EKVX NSCLC, 41.1 µM; in the assay on CAKI-1 renal, 6.49 µM. Also, the GI50 in the assay on HCC-2998 colon is 14.5 µM; in the assay on SR leukemia, 2.95 µM; in the assay with SW-620 colon, 3.78 µM; with COLO 205 colon, 5.96 µM. The TGI is 60.9 µM in the assay on M14 melanoma; more than 100 µM with NCI/ADR-RES ovarian; 32.9 µM in the assay on SK-MEL-2 melanoma; more than 100 µM with SNB-19 CNS; more than 100 µM in the assay with EKVX NSCLC; more than 100 µM in the assay on CAKI-1 renal. Also, the TGI in the assay with HCC-2998 colon was more than 100 µM; in the assay on SR leukemia, 15.1 µM; in the assay on SW-620 colon, more than 100 µM; in the assay with COLO 205 colon, 32.4 µM.
Take `O=C1c2cccnc2C(=O)c2nc3cc(N4CCN(C5CC5)CC4)ccc3nc21`: the GI50 in the assay on M14 melanoma was 0.301 µM; in the assay with NCI/ADR-RES ovarian, 1.95 µM; with SK-MEL-2 melanoma, 1.61 µM; with SNB-19 CNS, 0.465 µM; with EKVX NSCLC it was 1.68 µM; with CAKI-1 renal, 0.439 µM. Moreover, the GI50 in the assay on HCC-2998 colon was 0.49 µM; in the assay with SR leukemia, 0.322 µM; in the assay on SW-620 colon, 0.409 µM; in the assay on COLO 205 colon, 0.558 µM. In addition, the TGI was found to be 1.18 µM in the assay on M14 melanoma; 8.14 µM in the assay on NCI/ADR-RES ovarian; 4.22 µM in the assay with SK-MEL-2 melanoma; 3.63 µM in the assay on SNB-19 CNS; 4.02 µM in the assay on EKVX NSCLC; 3.05 µM in the assay on CAKI-1 renal. Moreover, the TGI in the assay on HCC-2998 colon was 1.83 µM; in the assay on SR leukemia, more than 20.1 µM; in the assay with SW-620 colon, 1.94 µM; with COLO 205 colon, 2.34 µM.
